Measurements: ChEMBL document CHEMBL3507680, “University of Dundee, Gates Library screen for HepG2 cell viability”

Assay: Human HepG2 cell viability assay in 384 well format
Format: toxicity, cell-based
Design: dose 125 nL, time 70.5 hour; concentration not given beside the values
Settings: HepG2 cells, read-out: Inhibition

SMILES	cytotoxicity at 70.5 h
CN(Cc1cc(C[C@@H]2C[C@H](N)C2(C)C)no1)c1ccccc1	-5.24%
O=C1NC[C@H]2CN(Cc3nccs3)CCN12	-8.47%
COCCOC[C@]1(CNC(=O)c2ccc(OC)cc2)C[C@@H](O)[C@@H](O)C1	-4.22%
Cn1ccnc1CNC[C@H]1Cn2cc(-c3ccccc3)nc2CO1	-8.01%
Cc1ccc(-c2cn3c(n2)CO[C@@H](CNCc2nccn2C)C3)cc1	-5.86%
Cc1ccc2c(c1)nc1n2[C@@H](CNC(=O)c2cccnc2)COC1	-4.19%
Cc1ccc(C(=O)N2[C@@H]3CC[C@H]2CN(C)C(=O)C3)c(=O)[nH]1	-8.22%
CCN1CCc2[nH]cnc2C12CCN(Cc1ccc3nsnc3c1)CC2	-5.41%
Cc1cc2ccccc2n1CCC(=O)N1CCCC1Cn1cccn1 (stereo not drawn)	-9.07%
CCCc1nc(C)cc(N2Cc3cnn(CCO)c3C2)n1	0.818%
COCCC1(C(=O)O)CCCN(Cc2ccccc2OCCO)C1 (stereo not drawn)	-8.44%
O=C(CCc1cn[nH]c1)N1C[C@H](CO)C[C@H](CN2CCOCC2)C1	-8.81%
CCCc1nnc(N2CCN(c3ccccc3Cl)CC2)o1	-0.178%
Cc1ccc(C2(O)CCN(C(=O)Cn3cc(C)c(=O)[nH]c3=O)CC2)nc1	-7.28%
CN(Cc1ccccc1)c1ncccc1CNC1CN2CCC1CC2 (stereo not drawn)	-6.82%
O=C(C1CCS(=O)(=O)CC1)N1C[C@H]2CC[C@@H]1CN(Cc1ccccc1)C2	10.4%
CSCC(=O)N1CCC(c2nccn2Cc2cscn2)CC1	-2.59%
CC[C@@H](c1ccccc1)n1c(CN)n[nH]c1=O	-13.5%
COCCc1noc(-c2ccc(N[C@H]3CCCCNC3=O)nc2)n1	1.36%
NC(=O)N1CCCC(C(=O)NCc2noc(Cc3ccccc3)n2)C1 (stereo not drawn)	-12.7%
CCc1ncc(C(=O)N2CCN(Cc3ncccc3C)CC2)cn1	-14.7%
C[C@@H]1CN(CC(C)(C)N2CCCCC2)CC[C@@]1(O)C1CC1	-5.05%

SMILES	cytotoxicity at 70.5 h
O=c1cc(N2CCNCC2)cnn1CCCn1cccn1	-9.24%
CN1N=C(C(=O)N2CCCC(CCc3ccccc3F)C2)CCC1=O (stereo not drawn)	-5.83%
O=C(c1ccsc1)N1CCc2c(nc(-c3ccncc3)[nH]c2=O)C1	-6.38%
Cc1nc(N(C)C2CCCCC2)ncc1C(C)NC(=O)c1cccnc1 (stereo not drawn)	-5.07%
CC(CCc1ccc(O)cc1)NC1CCN(S(C)(=O)=O)CC1 (stereo not drawn)	-4.22%
Cc1nc(N)ccc1CC1COc2ccccc2C1 (stereo not drawn)	15%
COCCC1(CO)CCCN(C(=O)c2cc(Cl)ccc2F)C1 (stereo not drawn)	-11%
O=C1CC(c2ncc(-c3ccc4c(c3)OCCO4)[nH]2)CN1C1CCCC1 (stereo not drawn)	-4.48%
COCCN(C)C[C@H]1C[C@H](CO)CN(C(=O)c2ccc(=O)n(C)c2)C1	-3.23%
N[C@@H]1c2ccccc2C2(CCN(c3cccc(C(F)(F)F)n3)CC2)[C@H]1O	5.4%
Cn1ncc2c(NCC3CCS(=O)(=O)C3)nc(-c3ccncc3)nc21 (stereo not drawn)	21.3%
CC(=O)Nc1cccc(C(=O)N2CCc3c(nc(N(C)C)[nH]c3=O)C2)c1	16.1%
CCS(=O)(=O)c1ncc(CN(C)Cc2ccccc2Cl)n1CCOC	-2.37%
CN(C)C[C@H]1C[C@@H](CO)CN(C(=O)c2cc(=O)[nH]c3cc(F)ccc23)C1	-2.71%
CCOc1ccccc1CN(C)C(=O)CN1C(=O)OC[C@@H]1C(C)C	15.5%
Cc1cccc(C(C(=O)N2CC(c3ccncc3)C2)N(C)C)c1 (stereo not drawn)	12.4%
O=C(O)c1cccc(CC2CCN(c3ncccn3)CC2)c1	3.25%
CCN(Cc1ccncc1)c1cc(C2CCNCC2)nc(C)n1	19.5%
COCCN(Cc1ccccn1)Cc1sccc1C	-10.3%
CCn1cc(CN2CCC(c3ccncc3)CC2)cc1C#N	-5.65%
CC(=O)N[C@H]1CCN(c2nc(C)nc3c2c(C)nn3C)C1	-8.71%
COc1cc(CN2CCN(CC3CC3)[C@@H]3CS(=O)(=O)C[C@@H]32)cc(OC)c1	3.14%

SMILES	cytotoxicity at 70.5 h
COCCN1CCN(Cc2ccncc2)[C@H]2CS(=O)(=O)C[C@H]21	-6.81%
COc1ccc(OC)c(-c2nc(CN(C)Cc3nncn3C)c(C)o2)c1	-6.73%
CSCCC(=O)N1CCC(Oc2cc(C)ccc2F)(C(=O)O)CC1	-7.4%
O=C(CCc1ccsc1)N1CCC(Cc2ccc(CO)cc2)C1 (stereo not drawn)	-3.39%
O=C1N(Cc2ccc(F)c(F)c2)CCCC12CCN(C1CCSCC1)C2 (stereo not drawn)	9.34%
C=Cc1ccc(C(=O)N2CCCC(Nc3ccc(F)cc3)C2)cc1 (stereo not drawn)	17%
Cc1cc(N2CCN3CCCCC3C2)n2nc(C)c(C)c2n1 (stereo not drawn)	1.57%
Cc1cccc(CN2C[C@H]3OC(=O)N(CCCN4CCOCC4)[C@H]3C2)n1	-10.1%
O=S(=O)(NCC1CCOc2ccccc2C1)N1CCOCC1 (stereo not drawn)	-14.9%
COCC1CCCN(C(=O)c2cc(Cn3ccc4ccccc43)[nH]n2)C1 (stereo not drawn)	-6.02%
O=C(c1ccc(F)c(F)c1)N1CCCC(Nc2ccc(F)cc2)C1 (stereo not drawn)	-5.1%
Cc1occc1C(=O)N1CCC2(CCC(=O)N(CC(N)=O)C2)CC1	-2.77%
CS(=O)(=O)CCC(=O)N1CCC2(CCCN(C3CCOCC3)C2=O)C1 (stereo not drawn)	-9.61%
O=C(CSc1ccncc1)N1C[C@H]2CC[C@@H]1CN(Cc1cccnc1)C2	-2.1%
Cn1ncc2c(NCCC34CCCN3CCC4)nc(C3CCCC3)nc21	5.19%
COCCCC1(CO)CCCN(CCS(C)(=O)=O)C1 (stereo not drawn)	-6%
C[C@@H]1CN(C(=O)c2ccc(C#N)nc2)C[C@@]1(O)C1CC1	13.9%
CCn1ccnc1CN(C)C1CCCN(CCc2ccccc2)C1 (stereo not drawn)	1.27%
O=C(CCc1ccc(=O)[nH]n1)N1CCCC(COc2ccc(F)cc2)C1 (stereo not drawn)	-1.69%
O=C(c1ccsc1)N1C[C@@H](CN2CCCC2)[C@@H](CO)C1	13.3%
CN(C)C(=O)c1ccc2c(c1)N(C)C(CC(=O)NCCC(C)(C)C)CO2 (stereo not drawn)	-5.81%
O=S(=O)(N1CCCC1)N1CCCCC1CCc1ccccc1 (stereo not drawn)	-5.36%

SMILES	cytotoxicity at 70.5 h
CN(Cc1csc(-c2cccs2)n1)C(=O)CCn1ccccc1=O	-17.2%
Cc1csc(CCCNC(=O)[C@H]2CNC[C@@H](C(=O)N3CCCC3)C2)n1	-9.44%
O=C(CSc1ncccn1)N1C[C@H]2CC[C@@H]1CN(Cc1ccncc1)C2	-0.441%
CC(=O)c1cc(CC(=O)NCc2ccc(CN(C)C)cc2)cs1	-7.31%
COc1cccc(N2CCN(C(=O)[C@H](O)C3CCCCC3)CC2=O)c1	-8.15%
Cc1cc(-c2nn(C)c(Cl)c2CN2CCOCC2CC(=O)O)no1 (stereo not drawn)	-7.35%
COc1ccc(OCc2nc(C(=O)N3CC(O)C3)co2)cc1	-8.01%
COc1ccccc1OCc1cc(C(=O)N2CC=CC2C(C)C)n[nH]1 (stereo not drawn)	-6.89%
O=C(c1coc(COc2cccc(F)c2)n1)N1CC[C@H](O)[C@@H](O)C1	-9.89%
O=C(NCCCc1ccncc1)C1CCCN(Cc2ccco2)C1 (stereo not drawn)	9.58%
CCCc1nc(C)cc(N2CCC3(CCC(=O)N(CC4CC4)C3)CC2)n1	-11.1%
O=C(c1ccc(C2CCCO2)s1)N1CCS(=O)(=O)CC1 (stereo not drawn)	-8.51%
O=C(CCC1CC1)N1C[C@@H](CN2CCCC2)[C@@H](CO)C1	-13.2%
Cc1noc(C)c1C1CCCN1C(=O)CN1CC2(CCNCC2)OC1=O (stereo not drawn)	19.7%
Cn1c(Cn2ccnc2)nnc1C1CCN(Cc2cccnc2N)CC1	-9.06%
CCn1cc(CNC2CC(=O)N(CCc3cccc(Cl)c3)C2)cn1 (stereo not drawn)	-3.19%
Nc1nccc(N2CCCC(CO)(CCOc3ccccc3)C2)n1 (stereo not drawn)	8.14%
Cc1ccc(OC2(C(=O)O)CCN(C(=O)c3nc(C)oc3C)CC2)cn1	-7.82%
COC1CCCN(C(=O)Nc2nc(C)n(C)n2)C1 (stereo not drawn)	-8.2%
O=C(c1ccc[nH]1)N1C[C@H]2CC[C@@H]1CN(C1Cc3ccccc3C1)C2	-9.66%
CC(C)N1CCC(N2CCN(C3CCC3)CC2CCO)CC1 (stereo not drawn)	-9.59%
COCCNC(=O)c1cc(S(=O)(=O)N2CCCCC2)cs1	-13.8%

SMILES	cytotoxicity at 70.5 h
CCS(=O)(=O)N(C)c1ccc(C(=O)N2CCCC(C)C2)cc1 (stereo not drawn)	-7.21%
CC(C)C(=O)N1CCN(C(=O)c2cscn2)[C@H]2CS(=O)(=O)C[C@H]21	-2.25%
Cc1ccccc1CS(=O)(=O)NCCCN1CCCCC1	-4.67%
O=C(c1ccccc1-c1ccccc1)N1CCOC2(CNCCOC2)C1 (stereo not drawn)	-11.1%
COCCNS(=O)(=O)c1ccc2c(c1)CCN(C(=O)c1cncn1C)C2	-5.18%
COc1ccc(Cc2nnc(SC)o2)cc1OC	-2.03%
NC(=O)C1CCN(C(=O)c2cccc(CN3CCOCC3)c2)CC1	8.77%
C[C@H](O)CNC(=O)c1cnc(-c2ccccc2)nc1O	-4.5%
O=C(O)[C@]12CCCN(Cc3ccncc3)[C@@H]1CCN(c1cnccn1)C2	8.46%
NC(=O)C1CCN(c2nc3nccc(-c4ccccc4)c3c(=O)[nH]2)CC1	-13.2%
CN1CCC(Oc2ccc(NC(=O)c3ccccc3Br)cc2)CC1	-7.15%
CN(C)C(=O)Cc1ccc(NC(=O)NC2CCCCC2)cc1	-10.4%
Cc1nn(-c2ccccc2)c2c1C(c1ccc(C(=O)O)cc1)CC(=O)N2 (stereo not drawn)	-3.05%
CCC(NC(=O)C1CCN(S(C)(=O)=O)CC1)c1ccc(OC)c(C)c1 (stereo not drawn)	-9.2%
Cc1cc(=O)n(CC(=O)Nc2ccc(C(N)=O)cc2)nc1C	-4.34%
Cc1nc(N2CCN(C(=O)C(C)(C)C)CC2)cc(-n2cnc(C)c2C)n1	13%
N#Cc1ccc(C2CC(=O)Nc3c2cnn3C2CCCC2)cc1 (stereo not drawn)	-2.74%
CCNC(=O)[C@@H]1CCCN1[C@@H](C(=O)NC)c1ccccc1OC	-8.29%
CNC(=O)[C@@H](c1ccccc1OC)N1CCC[C@H]1C(=O)N1CC[C@@H](O)C1	-3.98%
COCCOC[C@]1(CNCc2ccc(F)cc2)C[C@@H](O)[C@@H](O)C1	11.8%
